Laboratory results: US11512049B2, “Pleuromutilin 2-[(diphenylmethyl)thio] acetic acid ester with anti-drug resistant bacteria activity and a method of preparing the same” (SHAANXI UNIVERSITY OF SCIENCE AND TECHNOLOGY, priority 2021, dated 2022)

How the values were obtained:
Assay type in all cases: cell-based
Conditions in all cases: for Zone of inhibition: 30 μg/tablet paper, 37° C., 24 h, ≥17 mm sensitive, 15-16 mm intermediary, ≤14 mm drug resistance; for Inhibitory effect (in words): summary of FIGS. 1-3 and Table 1
[1] = test system: MRSA 18-171 (multi-resistant Staphylococcus aureus 171); experiment: Paper diffusion method drug sensitivity test, MRSA 18-171
Method: (§1) The antimicrobial efficacy was determined by a paper diffusion method drug sensitivity test.
(§2) Experimental strains: multi-resistant Staphylococcus aureus 171, multi-resistant Staphylococcus aureus 575, multi-resistant Staphylococcus aureus 596. The experimental strains were provided by Huashan Hospital Affiliated to Fudan University (Institute of Antibiotic of Fudan University).
(§3) Drug sensitive paper: The drug sensitive paper is a special drug sensitive paper with a diameter of 6.35 mm and a water absorption of 0.02 mL. The control drug was vancomycin (30 μg/tablet); the test drug was pleuromutilin 2-[(diphenylmethyl)thio]acetic acid ester (30 μg/tablet).
(§4) The experimental strains were inoculated in non-selective medium and placed in air at 37° C. for 24 h. Pick a single colony that grows well and inoculate it into broth medium, incubate at 35° C.±2° C. for 6 hours, and use LA broth medium to calibrate the concentration of the bacterial solution to 0.5 Mie turbidimetric tube ([…]). A bacterial suspension is obtained.
(§5) LB dry powder was weighed, sterilized at 103.4 Kpa, 121.3° C. high-pressure steam for 15 min, and then placed it in a 40° C.-50° C. water bath. A sterile empty plate (inner diameter 9 cm) was placed on the surface of the ultra-clean table water table, and […] to the plate. The thickness of each plate was 3 mm to 4 mm. After the plate was cooled at room temperature, it was stored in the refrigerator at 2° C.-8° C. A sterile cotton swab was used to dip the bacterial solution and to evenly coat the surface of the LB plate 3 times. After inoculation of the bacterial suspension, the LB plate was dried at room temperature for 3 min to 5 min. Sterile forceps were used to closely attach the antibacterial drug paper to the dish. The dish was put upside down and placed in a 37° C. incubator for 24 h. The results were observed by measuring the diameter. Taking 0.5% DMSO solution as a negative control, the antibacterial activity is expressed by the diameter of the inhibition zone. The inhibition zone ≥17 mm, sensitive; the inhibition zone of 15 mm-16 mm, intermediary; the inhibition zone ≤14 mm, drug resistance.

[2] = test system: MRSA 18-575 (multi-resistant Staphylococcus aureus 575); experiment: Paper diffusion method drug sensitivity test, MRSA 18-575
Method: as §1, §2, §3, §4, §5

[3] = test system: MRSA 18-596 (multi-resistant Staphylococcus aureus 596); experiment: Paper diffusion method drug sensitivity test, MRSA 18-596
Method: as §1, §2, §3, §4, §5

Compound	Zone of inhibition [1] [mm]	Zone of inhibition [2] [mm]	Zone of inhibition [3] [mm]	Inhibitory effect (in words) [1]	Inhibitory effect (in words) [2]	Inhibitory effect (in words) [3]
CN[C@H](CC(C)C)C(=O)N[C@H]1C(=O)N[C@@H](CC(N)=O)C(=O)N[C@H]2C(=O)N[C@H]3C(=O)N[C@H](C(=O)N[C@H](C(=O)O)c4cc(O)cc(O)c4-c4cc3ccc4O)[C@H](O)c3ccc(c(Cl)c3)Oc3cc2cc(c3O[C@@H]2O[C@H](CO)[C@@H](O)[C@H](O)[C@H]2O[C@H]2C[C@](C)(N)[C@H](O)[C@H](C)O2)Oc2ccc(cc2Cl)[C@H]1O [Vancomycin, vancomycin]	17	18	21	–	–	–
C=C[C@]1(C)C[C@@H](OC(=O)CO)[C@]2(C)[C@H](C)CC[C@]3(CCC(=O)[C@H]32)[C@@H](C)[C@@H]1O [Pleuromutilin]	0	0	0	no inhibitory effect	no inhibitory effect	no inhibitory effect
O=C(O)CSC(c1ccccc1)c1ccccc1 [2-[(Diphenylmethyl)thio]acetic acid]	0	0	0	no inhibitory effect	no inhibitory effect	no inhibitory effect
C=C[C@]1(C)C[C@@H](OC(=O)COC(=O)CSC(c2ccccc2)c2ccccc2)[C@]2(C)[C@H](C)CC[C@]3(CCC(=O)[C@H]32)[C@@H](C)[C@@H]1O	21	23	25	strong inhibitory effects	strong inhibitory effects	strong inhibitory effects
